From patent US7741479B2, “Urea inhibitors of MAP kinases” (Locus Pharmaceuticals, Inc., priority 2004, dated 2010)
Where two headings read alike, the source gives them in different places.

Molecular target: T1, p38 (Homo sapiens, UniProt Q16539)
T1 construct: made in house
Assay: Protein Kinase Assay (33P incorporation from γ-[33P]ATP into GST-ATF-2 substrate)
Assay type: biochemical
Conditions: for inhibition at 10 µM: compound at 10 μM; for inhibition at 0.5 µM: same procedure at 0.5 μM
Method: Human non-activated p38 kinase (MW=43 kDa) was purified according to the protocol described herein. Chemicals were purchased from Calbiochem. Fluorescence characterizations were conducted using a Cary Eclipse (Varian Analytical Instruments, Walnut Creek, Calif.). Research-grade CM5 sensor chips and coupling reagents (N-ethyl-N′-dimethylaminopropylcarbodiimide (EDC) N-hydroxysuccinimide (NHS), and 1 M ethanolamine HCl, pH 8.5) were purchased from Biacore AB (Uppsala, Sweden). The biosensor analyses were conducted using a Biacore 3000 SPR instrument. The kinetic analyses were carried on a Molecular Devices spectrophotometer (Molecular Devices Corporation, CA, USA).
Protein Kinase Assay. The protein kinase activity of p38 was determined by measuring the incorporation of ^33P from γ-[^33P]ATP into the GST-ATF-2 substrate, amino acids 19-96 (Upstate, NY USA). […] Compounds were preincubated with 10 nM p38 for 20 min at 30° C.; the reactions were initiated by the addition of GST-ATF2 and ATP and incubated for 70 min at 30° C. before being stopped by the addition of 10 μL of 600 mM phosphoric acid. The phosphorylated substrate was captured on phosphocellulose 96-well plate (Millipore MAPHNOB 10), washed with 100 mM phosphoric acid, and counted in a BeckmenCoulter LS6500 liquid scintillation counter.

[1] = compound at 3 μM, read-out: Protein Kinase (% Inhibition at 3 μM)
[2] = compound at 3 μM (noted beside the value in Table 1), read-out: Protein Kinase (% Inhibition)

T1 sequence (Q16539 whole entry): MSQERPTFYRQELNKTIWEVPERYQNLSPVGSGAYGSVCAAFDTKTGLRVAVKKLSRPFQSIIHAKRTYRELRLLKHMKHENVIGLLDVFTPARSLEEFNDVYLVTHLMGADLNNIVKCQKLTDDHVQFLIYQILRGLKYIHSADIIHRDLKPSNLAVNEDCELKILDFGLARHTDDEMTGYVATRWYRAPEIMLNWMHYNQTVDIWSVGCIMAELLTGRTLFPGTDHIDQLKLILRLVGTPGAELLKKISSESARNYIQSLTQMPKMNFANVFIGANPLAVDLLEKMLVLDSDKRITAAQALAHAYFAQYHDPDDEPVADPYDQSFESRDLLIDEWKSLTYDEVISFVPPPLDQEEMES

SMILES	inhibition at 3 µM [1] [%]	further results
Cc1cc(NC(=O)Nc2sc(C(C)(C)C)cc2C(=O)N2CCS(=O)(=O)CC2)cc(C)n1 [Example 70, 1-[5-tert-butyl-3-(1,1-dioxo-1λ^6-thiomorpholine-4-carbonyl)thiophen-2-yl]-3-(2,6-dimethylpyridin-4-yl)urea]	26 to 50	
CC(C)(C)c1cc(C(=O)N2CCS(=O)(=O)CC2)c(NC(=O)NC(C)(C)c2ccccc2)s1 [Example 66, 1-[5-tert-butyl-3-(1,1-dioxo-1λ^6-thiomorpholine-4-carbonyl)thiophen-2-yl]-3-(1-methyl-1-phenylethyl)urea]	0 to 25	
CC(C)(C)c1cc(C(=O)N2CCS(=O)(=O)CC2)c(NC(=O)Nc2cccc3cccnc23)s1 [Example 29, 1-[5-tert-butyl-3-(1,1-dioxo-1λ^6-thiomorpholine-4-carbonyl)thiophen-2-yl]-3-quinolin-8-ylurea]		inhibition at 10 µM: 0 to 25%
CC(C)(C)c1cc(C(=O)N2CCNC(=O)CC2)c(NC(=O)Nc2ccc3c(c2)OCO3)s1 [Example 73, 1-Benzo[1,3]dioxol-5-yl-3-[5-tert-butyl-3-(5-oxo-[1,4]diazepane-1-carbonyl)-thiophen-2-yl]urea]	76 to 100	
CC(C)(C)c1cc(C(=O)N2CCS(=O)(=O)CC2)c(NC(=O)Nc2ccc(Cl)c3ccccc23)s1 [Example 41, 1-[5-tert-butyl-3-(1,1-dioxo-1λ^6-thiomorpholine-4-carbonyl)thiophen-2-yl]-3-(4-chloronaphthalen-1-yl)urea]		inhibition at 3 µM [2]: 76 to 100%
CC(C)(C)c1cc(C(=O)N2CCS(=O)(=O)CC2)c(NC(=O)NC2CCc3ccccc32)s1 (stereo not shown) [Example 30, 1-[5-tert-butyl-3-(1,1-dioxo-1λ^6-thiomorpholine-4-carbonyl)thiophen-2-yl]-3-indan-1-ylurea]		inhibition at 10 µM: 51 to 75%
COC(=O)CC1C(=O)NCCN1C(=O)c1cc(C(C)(C)C)sc1NC(=O)Nc1cccc2ccccc12 (stereo not shown) [Example 88, {1-[5-tert-butyl-2-(3-naphthalen-1-yl-ureido)thiophene-3-carbonyl]-3-oxo-piperazin-2-yl}-acetic acid methyl ester]	76 to 100	
C[C@H]1C(=O)NCCN1C(=O)c1cc(C(C)(C)C)sc1NC(=O)Nc1cccc(Cl)c1Cl [Example 135, 1-[5-tert-Butyl-3-(2-methyl-3-oxopiperazine-1-carbonyl)thiophen-2-yl]-3-(2,3-dichlorophenyl)urea]		inhibition at 0.5 µM: 76 to 100%
CC(C)(C)c1cc(C(=O)N2CCNC(=O)CC2)c(NC(=O)NC2CCNCC2)s1 [Example 120, 1-[5-tert-Butyl-3-(5-oxo-[1,4]diazepane-1-carbonyl)thiophen-2-yl]-3-piperidin-4-ylurea]		protein kinase inhibition (tested at 3 μM according to the procedure described above): 0-25%
CC1C(=O)NCCN1C(=O)c1cc(C(C)(C)C)sc1NC(=O)Nc1cccc2ccccc12 (stereo not shown) [Example 87, 1-[5-tert-butyl-3-(2-methyl-3-oxopiperazine-1-carbonyl)thiophen-2-yl]-3-naphthalen-1-ylurea]	76 to 100	
CC(C)(C)c1cc(C(=O)N2CCS(=O)(=O)CC2)c(NC(=O)Nc2ccc3ccccc3c2)s1 [Example 4, 1-[5-tert-butyl-3-(1,1-dioxo-1λ^6-thiomorpholine-4-carbonyl)thiophen-2-yl]-3-naphthalen-2-ylurea]		inhibition at 10 µM: 76 to 100%
CC(C)(C)c1cc(C(=O)N2CCS(=O)(=O)CC2)c(NC(=O)Nc2ccc(C#N)c3ccccc23)s1 [Example 43, 1-[5-tert-butyl-3-(1,1-dioxo-1λ^6-thiomorpholine-4-carbonyl)thiophen-2-yl]-3-(4-cyanonaphthalen-1-yl)urea]		inhibition at 3 µM [2]: 76 to 100%
Cn1ccc(NC(=O)Nc2sc(C(C)(C)C)cc2C(=O)N2CCS(=O)(=O)CC2)n1 [Example 69, 1-[5-tert-butyl-3-(1,1-dioxo-1λ^6-thiomorpholine-4-carbonyl)thiophen-2-yl]-3-(1-methyl-1H-pyrazol-3-yl)urea]	0 to 25	
CC(C)(C)c1cc(C(=O)N2CCNC(=O)C2(C)C)c(NC(=O)Nc2cccc(Cl)c2Cl)s1 [Example 136, 1-[5-tert-Butyl-3-(2,2-dimethyl-3-oxo-piperazine-1-carbonyl)thiophen-2-yl]-3-(2,3-dichlorophenyl)urea]		inhibition at 0.5 µM: 76 to 100%
CC(C)(C)c1cc(C(=O)N2CCNS(=O)(=O)CC2)c(NC(=O)Nc2ccc3ccccc3c2)s1 [Example 38, 1-[5-tert-butyl-3-(1,1-dioxo-1λ^6-[1,2,5]thiadiazepane-5-carbonyl)thiophen-2-yl]-3-naphthalen-2-ylurea]		inhibition at 3 µM [2]: 76 to 100%
CCC1C(=O)NCCN1C(=O)c1cc(C(C)(C)C)sc1NC(=O)Nc1cccc(Cl)c1Cl (stereo not shown) [Example 134, 1-[5-tert-Butyl-3-(2-ethyl-3-oxopiperazine-1-carbonyl)thiophen-2-yl]-3-(2,3-dichlorophenyl)urea]		inhibition at 0.5 µM: 76 to 100%
CC(C)(C)c1cc(C(=O)N2CCNC(=O)C2)c(NC(=O)Nc2ccc(C#N)c3ccccc23)s1 [Example 57, 1-[5-tert-butyl-3-(3-oxopiperazine-1-carbonyl)thiophen-2-yl]-3-(4-cyano-naphthalen-1-yl)urea]	76 to 100	
CC(C)(C)c1cc(C(=O)N2CCS(=O)(=O)CC2)c(NC(=O)Nc2cccc3cn[nH]c23)s1 [Example 32, 1-[5-tert-butyl-3-(1,1-dioxo-1λ^6-thiomorpholine-4-carbonyl)thiophen-2-yl]-3-(1H-indazol-7-yl)urea]		inhibition at 10 µM: 26 to 50%
CC(C)(C)c1cc(C(=O)N2CCNC(=O)C2)c(NC(=O)Nc2cccc3ccccc23)s1 [Example 35, 1-[5-tert-butyl-3-(3-oxopiperazine-1-carbonyl)thiophen-2-yl]-3-naphthalen-1-ylurea]		inhibition at 10 µM: 51 to 75%
CC(C)(C)c1cc(C(=O)N2CC[S@SP2](=O)(=O)CC2)c(NC(=O)Nc2ccc(Br)c3ccccc23)s1 [Example 40, 1-(4-Bromonaphthalen-1-yl)-3-[5-tert-butyl-3-(1,1-dioxo-1λ^6-thiomorpholine-4-carbonyl)thiophen-2-yl]urea]		inhibition at 3 µM [2]: 76 to 100%
CC1C(=O)NCCN1C(=O)c1cc(C(C)(C)C)sc1NC(=O)Nc1ccc(Cl)cc1 (stereo not shown) [Example 78, 1-[5-tert-butyl-3-(2-methyl-3-oxopiperazine-1-carbonyl)thiophen-2-yl]-3-(4-chlorophenyl)urea]	76 to 100	
CC(C)(C)c1cc(NC(=O)Nc2ccc3ccccc3c2)c(C(=O)N2CCS(=O)(=O)CC2)s1 [Example 12, 1-[5-tert-butyl-2-(1,1-dioxo-1λ^6-thiomorpholine-4-carbonyl)thiophen-3-yl]-3-naphthalen-2-ylurea]		inhibition at 10 µM: 76 to 100%
CC(C)(C)c1cc(C(=O)N2CCNC(=O)C2)c(NC(=O)Nc2ccc(Cl)cc2)s1 [Example 47, 1-[5-tert-butyl-3-(3-oxopiperazine-1-carbonyl)thiophen-2-yl]-3-(4-chloro-phenyl)urea]	76 to 100	

More lines, main results first:

inhibition at 3 µM [1] [%]	SMILES	further results
76 to 100	CC(C)(C)c1cc(C(=O)N2CCNS(=O)(=O)CC2)c(NC(=O)Nc2ccc(C#N)cc2Cl)s1 [Example 92, 1-[5-tert-Butyl-3-(1,1-dioxo-1λ^6-[1,2,5]thiadiazepane-5-carbonyl)thiophen-2-yl]-3-(4-cyano-2-chlorophenyl)urea]	
76 to 100	CC(C)(C)c1cc(C(=O)N2CCNS(=O)(=O)CC2)c(NC(=O)Nc2ccc3c(c2)OCO3)s1 [Example 93, 1-Benzo[1,3]dioxol-5-yl-3-[5-tert-butyl-3-(1,1-dioxo-1λ^6-[1,2,5]thiadiazepane-5-carbonyl)thiophen-2-yl]urea]	
76 to 100	CC(C)(C)c1cc(C(=O)N2CCNS(=O)(=O)CC2)c(NC(=O)Nc2ccc3c(c2)OC(F)(F)O3)s1 [Example 94, 1-[5-tert-Butyl-3-(1,1-dioxo-1λ^6-[1,2,5]thiadiazepane-5-carbonyl)thiophen-2-yl]-3-(2,2-difluorobenzo[1,3]dioxol-5-yl)urea]	
76 to 100	CC(C)(C)c1cc(C(=O)N2CCNC(=O)CC2)c(NC(=O)Nc2ccc(C#N)cc2C(F)(F)F)s1 [Example 89, 1-[5-tert-butyl-3-(5-oxo-[1,4]diazepane-1-carbonyl)thiophen-2-yl]-3-(4-cyano-2-trifluoromethylphenyl)urea]	
76 to 100	CC(C)(C)c1cc(C(=O)N2CCS(=O)(=O)CC2)c(NC(=O)Nc2ccc(Cl)c(Cl)c2)s1 [Example 63, 1-[5-tert-butyl-3-(1,1-dioxo-1λ^6-thiomorpholine-4-carbonyl)thiophen-2-yl]-3-(3,4-dichlorophenyl)urea]	
76 to 100	CC(C)(C)c1cc(C(=O)N2CCS(=O)(=O)CC2)c(NC(=O)Nc2ccc3ncoc3c2)s1 [Example 72, 1-Benzoxazol-6-yl-3-[5-tert-butyl-3-(1,1-dioxo-1λ^6-thiomorpholine-4-carbonyl)thiophen-2-yl]urea]	
76 to 100	CC(C)(C)c1cc(C(=O)N2CCNS(=O)(=O)CC2)c(NC(=O)Nc2ccc(Cl)c(Cl)c2)s1 [Example 96, 1-[5-tert-Butyl-3-(1,1-dioxo-1λ^6-[1,2,5]thiadiazepane-5-carbonyl)thiophen-2-yl]-3-(3,4-dichlorophenyl)urea]	
76 to 100	CC(C)(C)c1cc(C(=O)N2CCS(=O)(=O)CC2)c(NC(=O)Nc2cccc(Cl)c2)s1 [Example 59, 1-[5-tert-butyl-3-(1,1-dioxo-1λ^6-thiomorpholine-4-carbonyl)thiophen-2-yl]-3-(3-chlorophenyl)urea]	
